Experimental data reported in patent US12544372B2, “Methods of treating rheumatoid arthritis, chronic spontaneous urticaria, and systemic lupus erythematosis using an inhibitor of Bruton's tyrosine kinase” (Genentech, Inc., priority 2019, dated 2026).

Legend:
C3 = experiment: SLE study biomarker: C3; assay type: in vivo, human
Method: The following biomarkers were explored according to the biomarker objectives provided above in the Study Objectives. In Table 13, biomarkers are measured at baseline and subsequent timepoints during and after treatment. One set of biomarkers evaluated is the plasmablast signature. Plasmablasts are rapidly dividing, short-lived antibody secreting cells. While they represent a small proportion of B cells in the blood, they are responsible for a majority of antibody transcripts found in whole blood mRNA. The plasmablast signature comprises the biomarkers IgJ, Mzbl, and Txndc5. The gene expression of IgJ, Mzbl, and Txndc5 may be measured, for example, a polypeptide expression by evaluating the level of mRNA for said gene in a patient's blood relative to a reference level.

[1] = test system: patients with refractory chronic spontaneous urticaria; experiment: Phase II CSU study (Cohorts 1 and 2): UAS7, weekly itch, weekly hives; assay type: in vivo, human
From the text: A Phase II, Multicenter, Randomized, Double-Blind, Placebo-Controlled Pilot and Dose-Ranging Study of Fenebrutinib in Patients with Refractory Chronic Spontaneous Urticaria (CSU)
This study was designed to evaluate the efficacy and safety of fenebrutinib compared with placebo as add-on therapy for the treatment of adult patients 18-75 years old who have been diagnosed with CSU and who remain symptomatic despite treatment with H1 antihistamines. Specific objectives and corresponding endpoints for the study are outlined below.
This pilot and dose-ranging study is a multicenter, randomized, double-blind, placebo-controlled, parallel-group study of the efficacy and safety of fenebrutinib as add-on therapy for the treatment of adult patients 18-75 years old who have been diagnosed with CSU and who remain symptomatic despite treatment with H1 antihistamines (including doses up to 4 times the approved dose per local treatment guidelines). The study consists of two cohorts. Cohort 1 enrolled 41 patients across multiple sites. After screening, eligible patients were randomly allocated in a ˜2:1 ratio to receive fenebrutinib 200 mg orally (PO) twice daily (BID) (n=28) or matching placebo (n=13) for 8 weeks and maintain stable doses of standard-of-care H1 antihistamine therapy throughout the study. A dose-ranging cohort, Cohort 2, enrolled approximately 120 patients randomly allocated in a 1:1:1:1 ratio received 50 mg PO daily (QD), 150 mg PO QD, 200 mg PO BID of GDC-0853, or placebo, respectively, for 8 weeks while maintaining stable doses of standard-of-care H1 antihistamine therapy throughout the study.
Both cohorts consist of three study periods over 14 weeks: (i) a screening period (Day −14 to Day −1), (ii) a treatment period [Day 1 to Day 57 (Week 0 to Week 8)], and (iii) a follow-up period [Day 57 to Day 85 (Week 8 to Week 12)].
The primary efficacy endpoint was measured at Week 8 (Day 57). Patients must have maintained stable doses of their pre-randomization H1 antihistamine therapy throughout the treatment period. After completion of the 8-week treatment period, all patients in both cohorts will enter a 4-week safety follow-up period in which no fenebrutinib treatment is given as patients maintain stable doses of their pre-randomization H1 antihistamine therapy.
The primary efficacy endpoint was the change in baseline in the UAS7 at Week 8 (Day 57). The change in the UAS7 (Table 9) is a summation of the average daily (a.m./p.m.) scores on the UAS (range: 0-6), which is a composite diary score with numeric severity intensity ratings on a scale of 0-3 (0=none to 3=intense/severe) for two domains: the intensity of the itch and the number of wheals/hives. The UAS is recorded by the patient twice daily (morning and evening) in the patient Urticaria Patient Daily eDiary.
Continuous longitudinal efficacy endpoints will be analyzed using a mixed model for repeated measures (MMRM) and descriptive statistics as appropriate. Additional model covariates will include baseline UAS7 and its interaction with visit. Missing data will be handled by the model under the missing-at-random assumption without need for imputation.
The secondary efficacy measurements are as described above in the “Study Objectives” section of this Example 2, and apply the UAS7 score and the weekly itch score measurement. Weekly itch scores are measured as part of the study patient's Urticaria Patient Daily eDiary.

ACPA IgG = experiment: RA study biomarker: ACPA IgG; assay type: in vivo, human
Method: Biomarkers were evaluated in serum or plasma samples at baseline and weeks 1, 4, and 12 in patients with available samples (cohort 1: n=438; cohort 2: n=86). The biomarkers evaluated in this assessment were chemokine [C-C motif] ligand 4 (CCL4), IL-6, and TNF-like cytokine 1A (TL1A). Total IgM, IgG, rheumatoid factor IgM autoantibody (RF), CCL4, TL1A, IL-6, and anti-CCP autoantibody (ACPA IgG) levels were analyzed with immunoassays. CD19^+ B cells and CD3^+ T cells were measured by flow cytometry. The proportion of patients achieving an ACR50 response at week 12 and the change in DAS28 score by week 12 were assessed relative to seropositivity (RF and/or ACPA positive at baseline) or baseline levels of RF in both cohorts. To select which biomarkers to evaluate in this trial, BTK-dependent myeloid biomarkers were identified using peripheral blood CD14^+ monocytes stimulated with immune-complexes in the presence or absence of a BTK inhibitor. In brief, the expression levels of genes in human monocytes were assayed under conditions of no stimulation; with human serum albumin immune complex stimulation; with stimulation and a low concentration of a BTK inhibitor with similar characteristics to fenebrutinib; or with stimulation and a high concentration of the BTK inhibitor. […] Genes annotated with cytokine activity were selected. The color bar represents normalized gene expression.

[2] = Phase II SLE study: safety
From the text: The safety objective for this study was to evaluate the safety of fenebrutinib given in combination with SOC in patients with moderate to severe active SLE.
An unblinded IMC and Scientific Oversight Committee is used to monitor multiple safety assessments.

[3] = Cohort 1, 200 mg BID vs placebo

With `C[C@H]1CN(C2COC2)CCN1c1ccc(Nc2cc(-c3ccnc(N4CCn5c(cc6c5CC(C)(C)C6)C4=O)c3CO)cn(C)c2=O)nc1` [fenebrutinib, (S)-2-(3′-(hydroxymethyl)-1-methyl-5-((5-(2-methyl-4-(oxetan-3-yl)piperazin-1-yl)pyridin-2-yl)amino)-6-oxo-1,6-dihydro-[3,4′-bipyridin]-2′-yl)-7,7-dimethyl-2,3,4,6,7,8-hexahydro-1H-cyclopenta[4,5]pyrrolo[1,2-a]pyrazin-1-one] the “C3, Median Change from Baseline at Week 48” value (C3; 150 mg QD) was “+0.01 g/L”, the “C3, Median Change from Baseline at Week 48” value (C3; 200 mg BID) was -0.01 g/L and the “UAS7 - Change from BL to Week 4, Mean (SD)” value ([1]; Cohort 1, 200 mg BID) was −21.1 (11.3). The “UAS7 - Change from BL to Week 4, Median” value ([1]; Cohort 1, 200 mg BID) was −22.5, the “UAS7 - Change from BL to Week 8, Mean (SD)” value ([1]; Cohort 1, 200 mg BID) was −21.6 (11.8) and the “UAS7 - Change from BL to Week 8, Median” value ([1]; Cohort 1, 200 mg BID) was −23.0. The “Weekly Hive Score - Change from BL to Week 4, Mean (SD)” value ([1]; Cohort 1, 200 mg BID) was −11.6 (6.8), the “Weekly Hive Score - Change from BL to Week 4, Median” value ([1]; Cohort 1, 200 mg BID) was −14.0 and the “Weekly Hive Score - Change from BL to Week 8, Mean (SD)” value ([1]; Cohort 1, 200 mg BID) was −12.2 (7.1). The “Weekly Hive Score - Change from BL to Week 8, Median” value ([1]; Cohort 1, 200 mg BID) was −14.0, the “Weekly Itch Severity - Change from BL to Week 4, Mean (SD)” value ([1]; Cohort 1, 200 mg BID) was −9.5 (5.4) and the “Weekly Itch Severity - Change from BL to Week 4, Median” value ([1]; Cohort 1, 200 mg BID) was −9.0. The “Weekly Itch Severity - Change from BL to Week 8, Mean (SD)” value ([1]; Cohort 1, 200 mg BID) was −9.4 (5.6), the “Weekly Itch Severity - Change from BL to Week 8, Median” value ([1]; Cohort 1, 200 mg BID) was −9.0 and the “UAS7 - Change from BL to Week 4, Treatment difference in LS means, 90% CI” value [1, 3] was −12.5 (−18.9, −6.1) 0.002. For the same compound, the “UAS7 - Change from BL to Week 8, Treatment difference in LS means, 90% CI” value [1, 3] was −4.3 (−11.3, 2.7) 0.305, the “Weekly Hive Score - Change from BL to Week 4, Treatment difference in LS means, 90% CI” value [1, 3] was −7.5 (−11.2, −3.7) 0.002 and the “Weekly Hive Score - Change from BL to Week 8, Treatment difference in LS means, 90% CI” value [1, 3] was −2.8 (−6.9, 1.4) 0.269. For the same compound, the “Weekly Itch Severity - Change from BL to Week 4, Treatment difference in LS means, 90% CI” value [1, 3] was −5.5 (−8.5, −2.6) 0.003, the “Weekly Itch Severity - Change from BL to Week 8, Treatment difference in LS means, 90% CI” value [1, 3] was −1.3 (−4.5, 1.8) 0.479 and the “patients well-controlled (UAS7≤6)” value ([1]; Cohort 1, 200 mg BID, Week 4) was 64%. For the same compound, the “well-controlled patients, % treatment difference over placebo” value ([1]; Cohort 1, 200 mg BID, Week 4) was 48.6%, the “patients well-controlled (UAS7≤6)” value ([1]; Cohort 1, 200 mg BID, Week 8) was 65% and the “well-controlled patients, % treatment difference over placebo” value ([1]; Cohort 1, 200 mg BID, Week 8) was 31.9%. The “weekly itch scores (treatment difference in LS means)” value ([1]; Cohort 1 and Cohort 2, each treatment group, all comers, Week 8) was “reduced weekly itch scores in each group”, the “ACPA IgG levels relative to placebo” value (ACPA IgG; cohort 1) was “not significantly changed relative to placebo” and the “ACPA IgG levels change” value (ACPA IgG; cohort 2, 200 mg twice daily, by week 12 (+15% in the placebo group)) was −24%. The “Total number of patients with at least one AE” value ([2]; 150 mg QD) was 77 (89) n (%), the “Total number of patients with at least one AE leading to death” value ([2]; 150 mg QD) was 1 (1) n (%) and the “Total number of patients with at least one Serious AE” value ([2]; 150 mg QD) was 4 (5) n (%). The “Total number of patients with at least one AE” value ([2]; 200 mg BID) was 68 (77) n (%), the “Total number of patients with at least one AE leading to death” value ([2]; 200 mg BID) was 0 n (%) and the “Total number of patients with at least one Serious AE” value ([2]; 200 mg BID) was 12 (14) n (%). For the same compound, the “ALT and AST elevations” value ([2]; interim analysis, 200 mg BID arm, some patients) was “signs of ALT and AST elevations” and the safety and tolerability ([2]; interim analysis, each dose) was “safe and well tolerated”.
